Biological target: T1, CB1 (CB1-Nluc) (Homo sapiens, UniProt P21554)
T1 construct: gene CNR1; CB1 with C-terminal NanoLuc (CB1-Nluc), stably co-expressed in HEK293-TR cells with NES-venus-mini-Gsi (Gs-based chimera with Gi1 C-terminal residues) as BRET acceptor
Test: NanoBRET venus-mini-Gsi recruitment
Format: cell-based

T1 sequence (P21554 whole entry): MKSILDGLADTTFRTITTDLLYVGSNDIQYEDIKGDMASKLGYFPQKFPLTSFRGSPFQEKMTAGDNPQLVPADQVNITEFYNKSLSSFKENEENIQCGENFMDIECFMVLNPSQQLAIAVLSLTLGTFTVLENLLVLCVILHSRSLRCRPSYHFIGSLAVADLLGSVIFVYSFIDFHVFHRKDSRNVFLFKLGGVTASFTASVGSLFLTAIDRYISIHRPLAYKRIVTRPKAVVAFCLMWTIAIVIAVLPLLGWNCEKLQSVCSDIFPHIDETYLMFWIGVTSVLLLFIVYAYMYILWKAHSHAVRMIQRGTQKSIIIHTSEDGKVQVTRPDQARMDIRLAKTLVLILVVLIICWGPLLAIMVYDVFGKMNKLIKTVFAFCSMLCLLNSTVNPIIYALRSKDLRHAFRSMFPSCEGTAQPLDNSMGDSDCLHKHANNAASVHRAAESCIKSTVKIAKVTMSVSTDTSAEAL

**Q.** How did the EC50 turn out when CC(C)(CCCCCCN=C=S)c1cc(O)c2c(c1)OC(C)(C)[C@@H]1CC[C@@H](CO)C[C@@H]21 [AM841, (6aR,9 R,10aR)-9-(hydroxymethyl)-3-(8-isothiocyanato-2-methyloctan-2-yl)-6,6-dimethyl-6a,7,8,9,10,10a-hexahydro-6H-benzo[c]chromen-1-ol] was run?
**A.** 3.39 nM

**Q.** How did the EC50 turn out when CCCc1cc(O)c2c(c1)OC(C)(C)[C@@H]1CCC(C)=C[C@@H]21 [THCv] was run?
**A.** 200 nM

**Q.** CCCCCCC(C)(C)c1cc(O)c2c(c1)OC(C)(C)C1CCC(=O)CC21 (centres unmarked) [Nabilone] was tested. Which EC50 did it give?
**A.** 13.8 nM

**Q.** CCCCCCC(C)(C)c1cc(O)c2c(c1)OC(C)(C)[C@@H]1CC=C(CO)C[C@@H]21 [HU210, (6aR)-trans-3-(1,1-Dimethylheptyl)-6a,7,10,10a-tetrahydro-1-hydroxy-6,6-dimethyl-6H-dibenzo[b,d]pyran-9-methanol] was tested. Which EC50 did it give?
**A.** 2.4 nM

**Q.** CCCC(C)(C)c1ccc2c(c1)OC(C)(C)[C@@H]1CC=C(C)C[C@@H]21 [JWH133, (6aR,10aR)-3-(1,1-Dimethylbutyl)-6a,7,10,10a-tetrahydro-6,6,9-trimethyl-6H-dibenzo[b,d]pyran] was tested. Which EC50 did it give?
**A.** 1150 nM

**Q.** Which EC50 does the source give for CCCCCCC(C)(C)c1cc(OC)c2c(c1)OC(C)(C)[C@@H]1CC=C(C)C[C@@H]21 [L759633] here?
**A.** 417 nM

**Q.** Which EC50 does the source give for CC1=CC[C@@H]2[C@@H](C1)c1c(O)cc(C(C)(C)CCCCCCBr)cc1OC2(C)C [AM11542, (6aR,10aR)-3-(8-bromo-2-methyloctan-2-yl)-6,6,9-trimethyl-6a,7,10,10a-tetrahydro-6H-benzo[c]chromen-1-ol] here?
**A.** 3.39 nM

**Q.** Which EC50 does the source give for CCCCCCC(C)(C)c1cc(O)c2c(c1)OC(C)(C)[C@@H]1CC[C@@H](CO)C[C@@H]21 [HU243] here?
**A.** 2.04 nM
